Measurements from patent publication US6426369B1, “Oxethazaine as antimicrobial agent” (Eisai Co., Ltd., priority 1997, dated 2002).

Test system: H. pylori
Experiment: Antimicrobial activity test 6: oxethazaine in combination with an antibiotic (AMPC, CAM, RXM), checker board method
Assay type: cell-based, Helicobacter pylori
Design: key to growth of H. pylori: “−” indicates the inhibited growth of H. pylori (presence of antimicrobial activity); “+” indicates the growth of H. pylori (absence of antimicrobial activity)
Conditions: for growth of H. pylori: oxethazaine μg/ml: 100, 50, 25, 12.5, 6.25, 3.13, 0
Text: The effect of combined use with amoxicillin (AMPC), clarithromycin (CAM) or roxithromycin (RXM) was examined in the same manner as in antimicrobial activity test 1, using the checker board method.

[1] = combined use with oxethazaine, out of 15 strains (AMPC), 21 strains (CAM), 22 strains (RXM)

SMILES: CC[C@H]1OC(=O)[C@H](C)[C@@H](O[C@H]2C[C@@](C)(OC)[C@@H](O)[C@H](C)O2)[C@H](C)[C@@H](O[C@@H]2O[C@H](C)C[C@H](N(C)C)[C@H]2O)[C@](C)(O)C[C@@H](C)/C(=N\OCOCCOC)[C@H](C)[C@@H](O)[C@]1(C)O [roxithromycin]
- additive effect, number of strains [1]: 19 strains/
- synergism, number of strains [1]: 4 strains/
- growth of H. pylori (strain EH 12, RXM 0.05 μg/ml): +
- growth of H. pylori (strain EH 12, RXM 0.1 μg/ml): +
- growth of H. pylori (strain EH 12, RXM 0.2 μg/ml): −
- growth of H. pylori (strain EH 12, RXM 0.4 μg/ml): −
- growth of H. pylori (strain EH 12, RXM 0.8 μg/ml): −
- growth of H. pylori (strain EH 12, RXM 1.56 μg/ml): −
- growth of H. pylori (strain EH 12, RXM 3.13 μg/ml): −
- growth of H. pylori (strain EH 12, RXM 6.25 μg/ml): −
- growth of H. pylori (strain EH 12, RXM 12.5 μg/ml): −
- growth of H. pylori (strain EH 12, RXM 25 μg/ml): −
- growth of H. pylori (strain EH 12, RXM 50 μg/ml): −
- growth of H. pylori (strain EH 12, RXM 100 μg/ml): −
- growth of H. pylori (strain EH 13, RXM 0.05 μg/ml): +
- growth of H. pylori (strain EH 13, RXM 0.1 μg/ml): +
- growth of H. pylori (strain EH 13, RXM 0.2 μg/ml): −
- growth of H. pylori (strain EH 13, RXM 0.4 μg/ml): −
- growth of H. pylori (strain EH 13, RXM 0.8 μg/ml): −
- growth of H. pylori (strain EH 13, RXM 1.56 μg/ml): −
- growth of H. pylori (strain EH 13, RXM 3.13 μg/ml): −
- growth of H. pylori (strain EH 13, RXM 6.25 μg/ml): −
- growth of H. pylori (strain EH 13, RXM 12.5 μg/ml): −
- growth of H. pylori (strain EH 13, RXM 25 μg/ml): −
- growth of H. pylori (strain EH 13, RXM 50 μg/ml): −
- growth of H. pylori (strain EH 13, RXM 100 μg/ml): −
- growth of H. pylori (strain NCTC11637, RXM 0.05 μg/ml): +
- growth of H. pylori (strain NCTC11637, RXM 0.1 μg/ml): +
- growth of H. pylori (strain NCTC11637, RXM 0.2 μg/ml): −
- growth of H. pylori (strain NCTC11637, RXM 0.4 μg/ml): −
- growth of H. pylori (strain NCTC11637, RXM 0.8 μg/ml): −
- growth of H. pylori (strain NCTC11637, RXM 1.56 μg/ml): −
- growth of H. pylori (strain NCTC11637, RXM 3.13 μg/ml): −
- growth of H. pylori (strain NCTC11637, RXM 6.25 μg/ml): −
- growth of H. pylori (strain NCTC11637, RXM 12.5 μg/ml): −
- growth of H. pylori (strain NCTC11637, RXM 25 μg/ml): −
- growth of H. pylori (strain NCTC11637, RXM 50 μg/ml): −
- growth of H. pylori (strain NCTC11637, RXM 100 μg/ml): −
- growth of H. pylori (strain NCTC11639, RXM 0.05 μg/ml): +
- growth of H. pylori (strain NCTC11639, RXM 0.1 μg/ml): +
- growth of H. pylori (strain NCTC11639, RXM 0.2 μg/ml): +
- growth of H. pylori (strain NCTC11639, RXM 0.4 μg/ml): +
- growth of H. pylori (strain NCTC11639, RXM 0.8 μg/ml): −
- growth of H. pylori (strain NCTC11639, RXM 1.56 μg/ml): −
- growth of H. pylori (strain NCTC11639, RXM 3.13 μg/ml): −
- growth of H. pylori (strain NCTC11639, RXM 6.25 μg/ml): −
- growth of H. pylori (strain NCTC11639, RXM 12.5 μg/ml): −
- growth of H. pylori (strain NCTC11639, RXM 25 μg/ml): −
- growth of H. pylori (strain NCTC11639, RXM 50 μg/ml): −
- growth of H. pylori (strain NCTC11639, RXM 100 μg/ml): −
